Source: patent publication US9073858B2, “Methods of targeted drug development” (priority 2010, dated 2015)
Like-named read-outs stand apart in the source and are kept apart here.

How the values were obtained:
EGFR = molecular target: T1, EGFR (Homo sapiens, UniProt P00533); test: EGFR in-cell Western (ICW) screening protocol; assay type: cell-based; set-up: unit not given here; settings: for ICW Screen: initial screen
T1 construct: endogenous in cells; host or cells: A431 cells (ATCC CRL-1555)
How it was run: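 Serum-starved cells treated with compound 4 h at 37 °C, then stimulated with EGF (20 or 0 ng/ml solution added) in its continued presence. In-cell Western on fixed cells: phospho-EGFR (800 channel) normalised to total EGFR (700 channel), % inhibition calculated against EGF-stimulated and unstimulated no-compound wells.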

MDBK line = test: MTT Cell Proliferation Assay, MDBK line; assay type: cell-based, bovine; settings: Bos taurus, MDBK
How it was run: (§1)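 Cells plated overnight, then exposed 3 days at 37 °C, 5% CO2 to compound in growth medium with 0.5% FBS and 0.5% DMSO final (0.5% DMSO as control).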

[1] = tested on: epithelial carcinoma A431 cell line; test: MTT Cell Proliferation Assay, A431 cell line; assay type: cell-based; settings: for MTT (10 Point follow-up) ratio / MTT-72 h A431/MDBK (ratio): value in brackets; for MTT (10 Point follow-up) ratio: numerically MDBK over A431; for IC50: Homo sapiens; for MTT-72 h A431/MDBK (ratio): numerically MDBK value over A431 value
How it was run: as §1

[2] = 10 point follow-up, second value of pair, read-out: MTT (10 Point follow-up) MDBK
[3] = A-431, 10 point follow-up, first value of pair, read-out: MTT (10 Point follow-up) A431
[4] = 72 h, second value of A431/MDBK pair, read-out: MTT-72 h MDBK
[5] = A-431, 72 h, 72 h, first value of A431/MDBK pair, read-out: MTT-72 h A431

T1 sequence (P00533 25-1210): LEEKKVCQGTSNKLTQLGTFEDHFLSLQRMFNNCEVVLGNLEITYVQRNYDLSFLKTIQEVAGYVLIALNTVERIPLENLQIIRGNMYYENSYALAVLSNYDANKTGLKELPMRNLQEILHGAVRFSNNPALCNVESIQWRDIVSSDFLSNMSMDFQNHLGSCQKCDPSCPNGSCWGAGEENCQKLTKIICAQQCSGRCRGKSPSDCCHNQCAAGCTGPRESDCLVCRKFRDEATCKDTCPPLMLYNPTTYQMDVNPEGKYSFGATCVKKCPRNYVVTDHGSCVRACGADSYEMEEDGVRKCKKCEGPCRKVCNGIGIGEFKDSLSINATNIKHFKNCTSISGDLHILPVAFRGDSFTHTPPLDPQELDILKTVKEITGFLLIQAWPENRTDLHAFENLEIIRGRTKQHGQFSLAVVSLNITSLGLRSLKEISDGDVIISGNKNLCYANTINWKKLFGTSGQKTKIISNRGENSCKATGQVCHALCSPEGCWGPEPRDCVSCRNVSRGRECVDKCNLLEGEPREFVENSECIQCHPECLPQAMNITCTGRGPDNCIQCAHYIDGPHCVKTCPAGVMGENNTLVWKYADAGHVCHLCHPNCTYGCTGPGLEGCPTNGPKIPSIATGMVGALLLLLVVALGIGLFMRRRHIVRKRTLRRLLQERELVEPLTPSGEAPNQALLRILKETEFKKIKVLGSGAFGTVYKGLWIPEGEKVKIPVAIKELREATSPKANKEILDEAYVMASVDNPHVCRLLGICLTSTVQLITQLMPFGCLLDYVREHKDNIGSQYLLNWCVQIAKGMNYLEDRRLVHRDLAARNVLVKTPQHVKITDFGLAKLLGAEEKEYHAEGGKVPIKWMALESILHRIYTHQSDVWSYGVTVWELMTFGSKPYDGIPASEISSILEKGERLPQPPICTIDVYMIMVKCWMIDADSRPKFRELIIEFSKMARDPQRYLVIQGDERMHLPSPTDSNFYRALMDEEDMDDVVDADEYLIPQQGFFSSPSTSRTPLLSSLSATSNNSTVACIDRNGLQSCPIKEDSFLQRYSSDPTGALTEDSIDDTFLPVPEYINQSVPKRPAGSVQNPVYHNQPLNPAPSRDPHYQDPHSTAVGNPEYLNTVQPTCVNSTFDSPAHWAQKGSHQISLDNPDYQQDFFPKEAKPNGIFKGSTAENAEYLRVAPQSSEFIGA

Oc1c(C(Nc2ccccn2)c2ccccc2Br)cc(Cl)c2cccnc12 (stereo not shown) [compound 10074]
ICW Screen (EGFR): 6.951
IC50 (MDBK line; [2]): 1.6 µM
MTT (10 Point follow-up) ratio [1]: 1.16
IC50 [1, 3]: 1.38 µM

CCOc1ccc(C(Nc2ccccn2)c2ccc3cccnc3c2O)cc1O (stereo not shown) [compound 10013]
ICW Screen (EGFR): 61.2
ICW Re-Test (EGFR): 62.77
IC50 (MDBK line; [2]): 6.32 µM
IC50 (MDBK line; [4]): 6.42 µM
MTT (10 Point follow-up) ratio [1]: 1.79
MTT-72 h A431/MDBK (ratio) ([1]; 72 h): 1.80
IC50 [1, 3]: 3.53 µM
IC50 [1, 5]: 3.56 µM

Cc1cccc(NC(c2ccc(C)s2)c2ccc3ccc(C)nc3c2O)n1 (stereo not shown) [compound 10952]
ICW Screen (EGFR): 49.39
ICW Re-Test (EGFR): 43.94
IC50 (MDBK line; [4]): 7.77 µM
MTT-72 h A431/MDBK (ratio) ([1]; 72 h): 0.74
IC50 [1, 5]: 10.5 µM

CCCC(=O)NC(c1ccc(O)c(OCC)c1)c1cc([N+](=O)[O-])c2cccnc2c1O (stereo not shown) [compound 10959]
ICW Screen (EGFR): 42.18
ICW Re-Test (EGFR): 87.34
IC50 (MDBK line; [2]): 2.07 µM
IC50 (MDBK line; [4]): 2.43 µM
MTT (10 Point follow-up) ratio [1]: 2.16
MTT-72 h A431/MDBK (ratio) ([1]; 72 h): 2.47
IC50 [1, 3]: 0.96 µM
IC50 [1, 5]: 0.98 µM

Cc1cccc(NC(c2ccncc2)c2ccc3cccnc3c2O)n1 (stereo not shown) [compound 10974]
ICW Screen (EGFR): 50.44
ICW Re-Test (EGFR): 44.13
IC50 (MDBK line; [4]): 4.77 µM
MTT-72 h A431/MDBK (ratio) ([1]; 72 h): 1.14
IC50 [1, 5]: 4.19 µM

COc1ccc(NC(c2ccccn2)c2ccc3cccnc3c2O)cc1 (stereo not shown) [compound 11103]
ICW Screen (EGFR): 50.55
ICW Re-Test (EGFR): 45.86
IC50 (MDBK line; [4]): 36.4 µM
MTT-72 h A431/MDBK (ratio) ([1]; 72 h): 1.75
IC50 [1, 5]: 20.8 µM

Oc1cccnc1NC(c1ccc(F)cc1)c1ccc2cccnc2c1O (stereo not shown) [compound 10509]
ICW Screen (EGFR): 31.55
IC50 (MDBK line; [2]): 1.95 µM
IC50 (MDBK line; [4]): 2.05 µM
MTT (10 Point follow-up) ratio [1]: 1.56
MTT-72 h A431/MDBK (ratio) ([1]; 72 h): 1.60
IC50 [1, 3]: 1.25 µM
IC50 [1, 5]: 1.28 µM

CCC(=O)NC(c1cccs1)c1cc([N+](=O)[O-])c2cccnc2c1O (stereo not shown) [compound 10960]
ICW Screen (EGFR): 32.5
ICW Re-Test (EGFR): 91.3
IC50 (MDBK line; [2]): 0.967 µM
IC50 (MDBK line; [4]): 1.02 µM
MTT (10 Point follow-up) ratio [1]: 1.49
MTT-72 h A431/MDBK (ratio) ([1]; 72 h): 1.52
IC50 [1, 3]: 0.648 µM
IC50 [1, 5]: 0.67 µM

Cc1ccc(C(Nc2cccc(C)n2)c2ccc3cccnc3c2O)cc1 (stereo not shown) [compound 10054]
ICW Screen (EGFR): 35.84
IC50 (MDBK line; [4]): 5.46 µM
MTT-72 h A431/MDBK (ratio) ([1]; 72 h): 1.00
IC50 [1, 5]: 5.47 µM

O=C(O)c1ccc(C(Nc2ccccn2)c2cc(Cl)c3cccnc3c2O)cc1 (stereo not shown) [compound 10093]
ICW Screen (EGFR): 25.13
IC50 (MDBK line; [4]): 21.5 µM
MTT-72 h A431/MDBK (ratio) ([1]; 72 h): 0.68
IC50 [1, 5]: 31.4 µM

Cc1ccc2ccc(C(Nc3ccccn3)c3cccnc3)c(O)c2n1 (stereo not shown) [compound 10967]
ICW Screen (EGFR): 25.98
ICW Re-Test (EGFR): 15.92
IC50 (MDBK line; [4]): 31 µM
MTT-72 h A431/MDBK (ratio) ([1]; 72 h): 0.67
IC50 [1, 5]: 46 µM

Oc1c(C(Nc2ccccn2)c2ccccc2Cl)ccc2cccnc12 (stereo not shown) [compound 10482]
ICW Screen (EGFR): 16.45
IC50 (MDBK line; [2]): 0.455 µM
MTT (10 Point follow-up) ratio [1]: 1.28
IC50 [1, 3]: 0.356 µM

COc1ccc(NC(c2cccnc2)c2ccc3cccnc3c2O)cc1 (stereo not shown) [compound 11152]
ICW Screen (EGFR): 60.41
ICW Re-Test (EGFR): 48.96
IC50 (MDBK line; [4]): 8.24 µM
MTT-72 h A431/MDBK (ratio) ([1]; 72 h): 0.92
IC50 [1, 5]: 9 µM

CCOc1ccc(C(Nc2cc(C)ccn2)c2ccc3cccnc3c2O)cc1OC (stereo not shown) [compound 10017]
ICW Screen (EGFR): 44.27
ICW Re-Test (EGFR): 30.11
IC50 (MDBK line; [2]): 2.98 µM
IC50 (MDBK line; [4]): 3.51 µM
MTT (10 Point follow-up) ratio [1]: 0.85
MTT-72 h A431/MDBK (ratio) ([1]; 72 h): 0.94
IC50 [1, 3]: 3.52 µM
IC50 [1, 5]: 3.72 µM

CCN1CCN(C(c2cccnc2)c2cc(Cl)c3cccnc3c2O)CC1 (stereo not shown) [compound 10547]
ICW Screen (EGFR): 26.4
IC50 (MDBK line; [4]): 5.96 µM
MTT-72 h A431/MDBK (ratio) ([1]; 72 h): 0.52
IC50 [1, 5]: 11.5 µM

Cc1cccc(NC(c2cccc(Cl)c2)c2ccc3cccnc3c2O)n1 (stereo not shown) [compound 10043]
ICW Screen (EGFR): 34.63
IC50 (MDBK line; [2]): 5.29 µM
MTT (10 Point follow-up) ratio [1]: 0.97
IC50 [1, 3]: 5.46 µM

CCN1CCN(C(c2ccc(C(F)(F)F)cc2)c2ccc3cccnc3c2O)CC1 (stereo not shown) [compound 10535]
ICW Screen (EGFR): 44.02
ICW Re-Test (EGFR): 52.63
IC50 (MDBK line; [2]): 2.91 µM
IC50 (MDBK line; [4]): 3.95 µM
MTT (10 Point follow-up) ratio [1]: 1.43
MTT-72 h A431/MDBK (ratio) ([1]; 72 h): 1.45
IC50 [1, 3]: 2.04 µM
IC50 [1, 5]: 2.72 µM

Cc1ccnc(NC(c2cccc(OCc3ccccc3)c2)c2ccc3cccnc3c2O)c1 (stereo not shown) [compound 10053]
ICW Screen (EGFR): 32.85
IC50 (MDBK line; [2]): 0.44 µM
MTT (10 Point follow-up) ratio [1]: 0.11
IC50 [1, 3]: 3.98 µM
